Data on eight compounds can be found in ChEMBL document CHEMBL5357051, “Quinoline, Indole, and Isogranatanine Alkaloids from Malayan Leuconotis eugeniifolia” (J Nat Prod, 2024).

One experiment concerns HCT-116. Nature of the experiment: Cytotoxicity against human HCT-116 cells assessed as inhibition of cell growth incubated for 72 hrs by MTT assay. It counts as functional, cell-based. To be noted: HCT-116, 72 h. Background: Tetrazolium dyes change colour on reduction, which living cells bring about.
For another experiment, the system named is HT-29. Nature of the experiment: Cytotoxicity against human HT-29 cells assessed as inhibition of cell growth incubated for 72 hrs by MTT assay. To be noted: HT-29, 72 h. It counts as functional, cell-based.

Usually IC50 stands for the concentration at which inhibition is half-maximal.

For the compound `CC[C@@]12CCC[N+]3([O-])CC[C@@]4(C(=Nc5ccccc54)[C@@H](O)C1)[C@@H]23` (stereo partly specified), the IC50 with HCT-116 and in the experiment on HT-29 was > 10 µM each time.
`CC[C@]1(CCC(=O)OC)CCCNC1`: the IC50 with HCT-116 and in the experiment with HT-29 was > 10 µM throughout.
Consider `CC[C@@]12CCO[C@@H]1N(CC[C@]1(O)C(=O)Nc3ccccc31)CC[C@H]2O`, for which the concentration for half-maximal inhibition (IC50) in the experiment with HCT-116 and in the experiment on HT-29 was > 10 µM each time.
Regarding `COC(=O)[C@H]1CO[C@H](C)[C@]2(O)C[N@+]3([O-])CCc4c([nH]c5ccccc45)[C@@H]3C[C@H]12`, the IC50 in the experiment with HCT-116 and in the experiment with HT-29 was > 10 µM each time.
With `CC[C@@]12CCC[N@@+]3([O-])C[C@@H]4[C@@](O)(c5ccccc5N[C@]4(O)CC1)[C@@H]23`, the IC50 is > 10 µM in the experiment on HCT-116 and 7.1 µM in the experiment on HT-29.
In the case of `CC[C@]12CCCN[C@]13/C(=C\C(=O)O)c1ccccc1N3C(=O)CC2`, the concentration for half-maximal inhibition (IC50) in the experiment on HCT-116 and in the experiment on HT-29 was > 10 µM each time.
On to `CC[C@]12CCCN(C1)C(=O)CC2`, for which the IC50 was > 10 µM in the experiment on HCT-116 and 7.2 µM in the experiment on HT-29.
Take `COc1cccc2c1C(=O)c1c(O)c3c(c(O)c1C2=O)C[C@@](O)(C(=O)CO)C[C@@H]3O[C@H]1C[C@H](N)[C@H](O)[C@H](C)O1` [DOXORUBICIN]: the figures for the IC50 in the experiment on HCT-116 and with HT-29 were 0.04 µM and 0.06 µM, respectively.
